Read-outs that look alike come from different tables or passages of the source.
Molecular target: T1, CIB1 and αIIb interaction (CIB1-GST : F-αIIb peptide) (Homo sapiens, UniProt Q99828)
T1 construct: made in house; host or cells: BL-21 plus RIL cells (E. coli)
T1 sequence (Q99828 1-191): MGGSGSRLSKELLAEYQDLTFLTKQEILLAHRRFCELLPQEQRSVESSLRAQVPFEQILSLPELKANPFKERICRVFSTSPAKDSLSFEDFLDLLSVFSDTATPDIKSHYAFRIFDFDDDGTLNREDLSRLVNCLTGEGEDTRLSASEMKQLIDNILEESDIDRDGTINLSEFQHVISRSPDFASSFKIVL
Assay: FP assay, 1536-well qHTS format (primary and confirmatory screen)
Type: binding

[1] = qHTS primary screen hits, Table S2, negative = inhibition
[2] = qHTS primary screen hits, Table S2, negative sign = inhibitory curve
[3] = qHTS primary screen hits, Table S2, read-out: IC50
[4] = qHTS primary screen hits, Table S2, negative sign = inhibitory curve, several classes where COUNT > 1
[5] = qHTS FP screen hits, Table S2, negative = inhibition
[6] = qHTS FP screen hits, Table S2, read-out: IC50
[7] = qHTS primary screen of LOPAC/NPACT libraries, negative = inhibition
[8] = qHTS primary screen of LOPAC/NPACT libraries, negative sign = inhibitory curve
[9] = qHTS primary screen of LOPAC/NPACT libraries, read-out: IC50

Compound: CCCCC1(C2CCCC2)Cc2cc(OCC(=O)O)c(Cl)c(Cl)c2C1=O (stereo in doubt) [NCGC00093872-03]
- Efficacy (%) [1]: -41%
- Curve Class [2]: -2.2
- IC50 [3]: 44.7 µM

Compound: CN1CCN(c2ncc3nc(-c4cn(C)c5ccccc45)c(=O)n(Cc4cccs4)c3n2)CC1.O=C(O)C(F)(F)F [NCGC00012779-02]
- Efficacy (%) [1]: -27%
- Curve Class [4]: -2.4
- IC50 [3]: 50.1 µM

Compound: CN(C)c1ccc(C(=C2C=CC(=[N+](C)C)C=C2)c2ccccc2)cc1.CN(C)c1ccc(C(=C2C=CC(=[N+](C)C)C=C2)c2ccccc2)cc1.O=C(O)C(=O)O.O=C([O-])C(=O)O.O=C([O-])C(=O)O [NCGC00013058-02]
- Efficacy (%) [1]: -53%
- Curve Class [4]: -3
- IC50 [3]: 100 µM

Compound: O=S1(=O)OC(c2ccc(O)cc2)(c2ccc(O)cc2)c2ccccc21 [NCGC00013109-03]
- Efficacy (%) [1]: -72%
- Curve Class [2]: -2.4
- IC50 [3]: 44.7 µM

Compound: Oc1ccc(Cl)cc1Sc1cc(Cl)ccc1O [NCGC00013679-06]
- Efficacy (%) [1]: -30%
- Curve Class [4]: -2.4
- IC50 [3]: 50.1 µM

Compound: CCc1oc2ccccc2c1C(=O)c1cc(Br)c(O)c(Br)c1 [NCGC00013895-18]
- Efficacy (%) [5]: -51%
- Curve Class (qHTS FP screen hits, Table S2, one class per curve where COUNT > 1, negative sign = inhibitory curve): -2.2
- IC50 [6]: 34.9 µM

Compound: O=S(=O)(O)c1ccc2cc(/N=N/c3cc(S(=O)(=O)O)c4cccnc4c3O)ccc2c1 [NCGC00013917-09]
- Efficacy (%) [1]: -57%
- IC50 [3]: 14.3 µM

Compound: O=C(O)CCc1nc(-c2ccccc2)c(-c2ccccc2)o1 [NCGC00014711-11]
- Efficacy (%) [7]: -11%
- Curve Class [8]: -2.4
- IC50 [9]: 89.1 µM

Compound: CC[C@@]1(O)C(=O)OCc2c1cc1n(c2=O)Cc2cc3c(CN(C)C)c(O)ccc3nc2-1 [NCGC00014925-07]
- Efficacy (%) [1]: -147%
- IC50 [3]: 24.5 µM

Compound: Cn1c(=O)c2[nH]c(-c3ccc(S(=O)(=O)O)cc3)nc2n(C)c1=O [NCGC00015000-05]
- Efficacy (%) [7]: -28%
- Curve Class [8]: -2.2
- IC50 [9]: 50.1 µM

Compound: C=CCn1c(=O)c2c(nc(-c3ccc(S(=O)(=O)O)cc3)n2C)n(C)c1=O [NCGC00015008-05]
- Efficacy (%) [7]: -20%
- Curve Class [8]: -2.2
- IC50 [9]: 25.1 µM

Compound: NC1(C(=O)O)CCc2cc(C(=O)O)ccc21 (centres unmarked) [NCGC00015024-06]
- Efficacy (%) [7]: -25%
- Curve Class [8]: -2.2
- IC50 [9]: 56.2 µM

Compound: Nc1ccc2c3c(cccc13)C(=O)NC2=O [NCGC00015035-07]
- Efficacy (%) [1]: -70%
- Curve Class [2]: -1.2
- IC50 [3]: 2.5 µM

Compound: Nc1nc(N)c2nc(CNc3ccc(C(=O)NC(CCC(=O)O)C(=O)O)cc3)cnc2n1 (centres unmarked) [NCGC00015038-09]
- Efficacy (%) [1]: -49%
- Curve Class [2]: -2.2
- IC50 [3]: 39.8 µM

Compound: COc1cc(NS(C)(=O)=O)ccc1Nc1c2ccccc2nc2ccccc12.Cl [NCGC00015113-03]
- Efficacy (%) [7]: -25%
- Curve Class [8]: -2.2
- IC50 [9]: 56.2 µM

Compound: CCN1CCc2nc(N)oc2CC1.Cl [NCGC00015131-04]
- Efficacy (%) [7]: -13%
- Curve Class [8]: -2.4
- IC50 [9]: 39.8 µM

Compound: O=[N+]([O-])c1cccc2c(Br)n[nH]c12 [NCGC00015143-10]
- Efficacy (%) [7]: -16%
- Curve Class [8]: -2.4
- IC50 [9]: 79.4 µM

Compound: C[N+](C)(C)CC(=O)O.[Cl-] [NCGC00015150-04]
- Efficacy (%) [1]: -24%
- Curve Class [4]: -2.4
- IC50 [3]: 56.2 µM

Compound: Cl.Cl.NC(CO)C(=O)NNCc1ccc(O)c(O)c1O (centres unmarked) [NCGC00015163-09]
- Efficacy (%) [1]: -50%
- Curve Class [4]: -2.2
- IC50 [3]: 50.1 µM

Compound: CN1CCN(c2nc3cc(C(F)(F)F)ccc3n3cccc23)CC1.O=C(O)/C=C\C(=O)O [NCGC00015180-05]
- Efficacy (%) [1]: -17%
- Curve Class [4]: -2.2
- IC50 [3]: 44.7 µM

Compound: N#Cc1cc2nc([O-])c([O-])nc2cc1[N+](=O)[O-].[Na+].[Na+] [NCGC00015198-04]
- Efficacy (%) [1]: -48%
- Curve Class [2]: -2.2
- IC50 [3]: 35.5 µM

Compound: COc1ccc2c(c1)c(CC(=O)O)c(C)n2Cc1ccc(Cl)cc1 [NCGC00015217-05]
- Efficacy (%) [1]: -44%
- Curve Class [2]: -2.2
- IC50 [3]: 39.8 µM

Compound: COc1ccc2c(c[n+](C)c3c4cc5c(cc4ccc23)OCO5)c1OC [NCGC00015225-07]
- Efficacy (%) [5]: -30%
- IC50 [6]: 24.6 µM

Compound: Clc1ccccc1C(c1ccccc1)(c1ccccc1)n1ccnc1 [NCGC00015251-09]
- Efficacy (%) [7]: -14%
- Curve Class [8]: -2.4
- IC50 [9]: 20 µM

Compound: O=c1[nH]c2cc([N+](=O)[O-])c([N+](=O)[O-])cc2[nH]c1=O [NCGC00015319-06]
- Efficacy (%) [1]: -48%
- Curve Class [2]: -2.2
- IC50 [3]: 31.6 µM

Compound: O=c1ccc2ccc(O)c(O)c2o1 [NCGC00015349-05]
- Efficacy (%) [7]: -13%
- Curve Class [8]: -2.4
- IC50 [9]: 70.8 µM

Compound: CCCCCCCCCCCCCCC[C@H](O)[C@@H](N)CO [NCGC00015362-05]
- Efficacy (%) [1]: -110%
- Curve Class [4]: -2.3
- IC50 [3]: 100 µM

Compound: O=c1oc(Cl)c(Cl)c2ccccc12 [NCGC00015369-06]
- Efficacy (%) [7]: -37%
- Curve Class [8]: -2.2
- IC50 [9]: 31.6 µM

Compound: CCCCCCCCCCC/C=C\C(C)(C)/C=C\CCCC(=O)O [NCGC00015371-07]
- Efficacy (%) [7]: -30%
- Curve Class [8]: -2.4
- IC50 [9]: 56.2 µM

Compound: CN(N=O)c1cc(O)ccc1O [NCGC00015372-04]
- Efficacy (%) [1]: -50%
- Curve Class [2]: -2.2
- IC50 [3]: 50.1 µM

Compound: CNC[C@H](O)c1ccc(O)c(O)c1 [NCGC00015417-04]
- Efficacy (%) [1]: -32%
- Curve Class [2]: -2.4
- IC50 [3]: 70.8 µM

Compound: Cc1cc(O)c2c(c1)C(=O)c1cc(O)cc(O)c1C2=O [NCGC00015420-08]
- Efficacy (%) [1]: -31%
- Curve Class [2]: -1.2
- IC50 [3]: 10 µM

Compound: CCOC(=O)Nc1ccc(NCc2ccc(F)cc2)nc1N.O=C(O)/C=C\C(=O)O [NCGC00015451-04]
- Efficacy (%) [7]: -53%
- IC50 [9]: 39.8 µM

Compound: CCOC(=O)C1=C(C)NC(C)=C(C(=O)OC)C1c1cccc(Cl)c1Cl (centres unmarked) [NCGC00015455-08]
- Efficacy (%) [7]: -26%
- Curve Class [8]: -2.2
- IC50 [9]: 50.1 µM

Compound: COc1ccc(Cl)cc1C(=O)NCCc1ccc(S(=O)(=O)NC(=O)NC2CCCCC2)cc1 [NCGC00015467-16]
- Efficacy (%) [7]: -14%
- Curve Class [8]: -2.4
- IC50 [9]: 31.6 µM

Compound: CN(C)c1cc2c(Nc3ccc4c(cnn4Cc4ccccc4)c3)ncnc2cn1 [NCGC00015468-06]
- Efficacy (%) [7]: -28%
- Curve Class [8]: -2.4
- IC50 [9]: 56.2 µM

Compound: COc1ccc(NC(=O)c2ccc(-c3ccc(-c4noc(C)n4)cc3C)cc2)cc1N1CCN(C)CC1.Cl [NCGC00015476-05]
- Efficacy (%) [7]: -19%
- Curve Class [8]: -2.2
- IC50 [9]: 17.8 µM

Compound: CC(C)(Sc1ccc(CCN(CCCCC2CCCCC2)C(=O)NC2CCCCC2)cc1)C(=O)O [NCGC00015480-08]
- Efficacy (%) [7]: -28%
- Curve Class [8]: -1.4
- IC50 [9]: 12.6 µM

Compound: NC(Cc1cc(O)c(O)cc1O)C(=O)O (centres unmarked) [NCGC00015503-06]
- Curve Class: -2.1
- Efficacy (%): -97%
- IC50 (IC50 [μM]): 35.5 µM

Compound: O=C1Nc2ccccc2/C1=C1/Nc2ccccc2/C1=N\O [NCGC00015545-07]
- Efficacy (%) [7]: -18%
- Curve Class [8]: -1.2
- IC50 [9]: 3.5 µM

Compound: O=C1NC(c2cccc([N+](=O)[O-])c2)=CCN1c1ccccc1O [NCGC00015571-05]
- Efficacy (%) [1]: -18%
- Curve Class [4]: -2.2
- IC50 [3]: 50.1 µM

Compound: O=C1Cc2c([nH]c3ccc(Br)cc23)-c2ccccc2N1 [NCGC00015582-06]
- Efficacy (%) [7]: -19%
- Curve Class [8]: -1.4
- IC50 [9]: 20 µM

Compound: Ic1ccccc1CNC1C2CCN(CC2)C1C(c1ccccc1)c1ccccc1.O=C(O)C(=O)O (centres unmarked) [NCGC00015587-03]
- Efficacy (%) [7]: -20%
- Curve Class [8]: -3
- IC50 [9]: 63.1 µM

Compound: CCCc1c(OCCCOc2ccc(OCC(=O)O)cc2)ccc(C(C)=O)c1O [NCGC00015599-05]
- Efficacy (%) [7]: -25%
- Curve Class [8]: -2.2
- IC50 [9]: 50.1 µM

Compound: CN1CCc2ccccc2Cc2[nH]c3ccccc3c2CC1 [NCGC00015614-05]
- Efficacy (%) [7]: -28%
- Curve Class [8]: -2.4
- IC50 [9]: 31.6 µM

Compound: Cc1c(OCC(F)(F)F)ccnc1C[S+]([O-])c1nc2ccccc2[nH]1 (centres unmarked) [NCGC00015615-15]
- Efficacy (%) [1]: -26%
- Curve Class [2]: -2.4
- IC50 [3]: 50.1 µM

Compound: O=C(O)/C(=C/c1c(C(=O)O)[nH]c2cc(Cl)cc(Cl)c12)c1ccccc1 [NCGC00015639-04]
- Efficacy (%) [7]: -29%
- Curve Class [8]: -2.2
- IC50 [9]: 56.2 µM

Compound: CC(C)NCC(O)c1cc(O)cc(O)c1.CC(C)NCC(O)c1cc(O)cc(O)c1.O=S(=O)(O)O (centres unmarked) [NCGC00015655-09]
- Efficacy (%) [1]: -51%
- Curve Class [4]: -2.4
- IC50 [3]: 56.2 µM

Compound: CN1CCC2(CCN3CCc4c(oc5ccccc45)C3C2)N(C)C1=O.Cl (centres unmarked) [NCGC00015699-03]
- Efficacy (%) [7]: -11%
- Curve Class [8]: -1.4
- IC50 [9]: 17.8 µM

Compound: CN(N=O)c1ccc(O)c(O)c1 [NCGC00015706-04]
- Efficacy (%) [1]: -66%
- Curve Class [4]: -2.4
- IC50 [3]: 56.2 µM

Compound: CCOC(=O)C1=C(C)NC(C)=C(C(=O)OC)C1c1cccc([N+](=O)[O-])c1 (centres unmarked) [NCGC00015713-10]
- Efficacy (%) [7]: -23%
- Curve Class [8]: -2.4
- IC50 [9]: 63.1 µM

Compound: O=c1[nH]c2cc(C(F)(F)F)ccc2n1-c1cc(C(F)(F)F)ccc1O [NCGC00015720-07]
- Efficacy (%) [7]: -30%
- Curve Class [8]: -2.4
- IC50 [9]: 44.7 µM

Reference: paper PMC11249646, “Small-Molecule Disruptors of the Interaction between Calcium- and Integrin-Binding Protein 1 and Integrin αIIbβ3 as Novel Antiplatelet Agents” (ACS Pharmacology & Translational Science, 2024)
